Test results: US20250101041A1, “POSITIVE ALLOSTERIC MODULATORS OF THE MUSCARINIC ACETYLCHOLINE RECEPTOR M4” (Vanderbilt University, priority 2022, published 2025)

Target: T1, human mAChR M4 (Homo sapiens, UniProt P08173)
T1 construct: expressed in transfected cells; host or cells: CHO-K1 (American Type Culture Collection), stably expressing hM4 and Gqi5
T1 sequence (P08173 1-479): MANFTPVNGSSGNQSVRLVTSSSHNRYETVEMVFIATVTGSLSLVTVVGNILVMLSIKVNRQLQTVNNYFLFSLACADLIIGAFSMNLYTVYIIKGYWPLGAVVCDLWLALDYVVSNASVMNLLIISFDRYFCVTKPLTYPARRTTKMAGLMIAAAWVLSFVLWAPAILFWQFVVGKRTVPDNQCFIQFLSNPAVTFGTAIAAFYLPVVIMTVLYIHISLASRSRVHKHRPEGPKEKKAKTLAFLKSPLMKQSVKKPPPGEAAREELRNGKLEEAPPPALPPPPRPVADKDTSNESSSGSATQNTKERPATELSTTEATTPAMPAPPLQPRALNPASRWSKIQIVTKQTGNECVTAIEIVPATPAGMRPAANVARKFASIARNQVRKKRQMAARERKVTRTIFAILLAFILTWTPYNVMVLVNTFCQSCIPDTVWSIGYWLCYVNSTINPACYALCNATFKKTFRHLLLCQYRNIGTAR
Experiment: mAChR M4 cell-based functional assay: calcium mobilization (Fluo-4, FDSS), potentiation of EC20 acetylcholine response in hM4-Gqi5 CHO-K1 cells
Parameters: Emax: dose or concentration left out as unconfirmed
Settings: for Emax at 30 µM: CHO-K1, % ACh maximum at 30 μM; for Emax at 30 µM / EC50: human M4; for EC50: potentiation of EC20 acetylcholine response, calcium mobilization
Summary of the method: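 Readout is the fluorescence-ratio rise at 1 Hz on FDSS, with PAM activity taken as concentration-dependent enhancement of the EC20 acetylcholine response, fitted four-parameter for EC50/Emax. hM4-Gqi5 CHO-K1 cells carried Fluo-4 AM dye; test compounds (11 points, 1:3) preceded EC20 acetylcholine additions at 144 s and 230 s.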

| Emax at 30 µM [%] | EC50 [nM] | SMILES | Emax (CHO-K1) [%] |
| --- | --- | --- | --- |
| 95 | 293 | COCc1cc(=O)n2nc(N3CCc4ncc(-c5sccc5OC)cc4C3)c(C)cc2n1 [Compound 1-368, 2-(methoxymethyl)-7-(3-(3-methoxythiophen-2-yl)-7,8-dihydro-1,6-naphthyridin-6(5H)-yl)-8-methyl-4H-pyrimido[1,2-b]pyridazin-4-one] |  |
| 67 | 244 | COCc1cc(=O)n2nc(N3CCc4ncc(-c5cc(F)ccc5C)cc4C3)c(C)cc2n1 [Compound 1-332, 7-(3-(5-fluoro-2-methylphenyl)-7,8-dihydro-1,6-naphthyridin-6(5H)-yl)-2-(methoxymethyl)-8-methyl-4H-pyrimido[1,2-b] pyridazin-4-one] |  |
| 98 | 11 | Cc1cc2nccc(=O)n2nc1N1CCc2ncc(Nc3ccncc3F)cc2C1 [Compound 2-111, 7-(3-((3-fluoropyridin-4-yl)amino)-7,8-dihydro-1,6-naphthyridin-6(5H)-yl)-8-methyl-4H-pyrimido[1,2-b]pyridazin-4-one] |  |
| 102 | 281 | Cc1cc2nc(C(=O)N3CC(C)C3)cc(=O)n2nc1N1CCc2ncc(C(F)(F)F)cc2C1 [Compound 1-56, 8-methyl-2-(3-methylazetidine-1-carbonyl)-7-(3-(trifluoromethyl)-7,8-dihydro-1,6-naphthyridin-6(5H)-yl)-4H-pyrimido[1,2-b]pyridazin-4-one] |  |
| 89 | 169 | Cc1cc(=O)n2nc(N3CCc4ncc(-c5ccsc5)cc4C3)c(C)c(C)c2n1 [Compound 1-304, 2,8,9-trimethyl-7-(3-(thiophen-3-yl)-7,8-dihydro-1,6-naphthyridin-6(5H)-yl)-4H-pyrimido[1,2-b]pyridazin-4-one] |  |
| 102 | 445 | COc1cncc(-c2cnc3c(c2)CN(c2nn4c(=O)cc(C(F)(F)F)nc4cc2C)CC3)c1 [Compound 1-74, 7-(3-(5-methoxypyridin-3-yl)-7,8-dihydro-1,6-naphthyridin-6(5H)-yl)-8-methyl-2-(trifluoromethyl)-4H-pyrimido[1,2-b]pyridazin-4-one] |  |
| 87 | 669 | Cc1c(N2CCc3ncc(-c4ccc(C(F)(F)F)nc4)cc3C2)nn2c(=O)ccnc2c1C [Compound 1-90, 8,9-dimethyl-7-(3-(6-(trifluoromethyl)pyridin-3-yl)-7,8-dihydro-1,6-naphthyridin-6(5H)-yl)-4H-pyrimido[1,2-b]pyridazin-4-one] |  |
| 92 | 134 | Cc1ccc(-c2cnc3c(c2)CN(c2nn4c(=O)c(C)cnc4c(C)c2C)CC3)cn1 [Compound 1-100, 3,8,9-trimethyl-7-(3-(6-methylpyridin-3-yl)-7,8-dihydro-1,6-naphthyridin-6(5H)-yl)-4H-pyrimido[1,2-b]pyridazin-4-one] |  |
| 82 | 469 | Cc1cc2nccc(=O)n2nc1N1CCc2ncc(Nc3ccc(F)nc3C)cc2C1 [Compound 2-143, 7-(3-((6-fluoro-2-methylpyridin-3-yl)amino)-7,8-dihydro-1,6-naphthyridin-6(5H)-yl)-8-methyl-4H-pyrimido[1,2-b]pyridazin-4-one] |  |
| 87 | 122 | Cc1cc(=O)n2nc(N3CCc4ncc(-c5ccsc5)cc4C3)c(C)cc2n1 [Compound 1-300, 2,8-dimethyl-7-(3-(thiophen-3-yl)-7,8-dihydro-1,6-naphthyridin-6(5H)-yl)-4H-pyrimido[1,2-b]pyridazin-4-one] |  |
| 34 | 2640 | Cc1cc2nccc(=O)n2nc1N1CCc2ncc(-c3cnccc3C#N)cc2C1 [Compound 1-319, 3-(6-(8-methyl-4-oxo-4H-pyrimido[1,2-b]pyridazin-7-yl)-5,6,7,8-tetrahydro-1,6-naphthyridin-3-yl)isonicotinonitrile] |  |
| 87 | 1830 | Cc1cc2nccc(=O)n2nc1N1CCc2ncc(NCC3CCCOC3)cc2C1 (centres unmarked) [Compound 2-86, 8-methyl-7-(3-(((tetrahydro-2H-pyran-3-yl)methyl)amino)-7,8-dihydro-1,6-naphthyridin-6(5H)-yl)-4H-pyrimido[1,2-b]pyridazin-4-one] |  |
| 75 | 174 | Cc1cc(=O)n2nc(N3CCc4ncc(-c5ccc(C6CC6)nc5)cc4C3)c(C)cc2n1 [Compound 1-72, 7-(3-(6-cyclopropylpyridin-3-yl)-7,8-dihydro-1,6-naphthyridin-6(5H)-yl)-2,8-dimethyl-4H-pyrimido[1,2-b]pyridazin-4-one] |  |
| 75 | 95 | Cc1c(N2CCc3ncc(C4CCCCC4)cc3C2)nn2c(=O)ccnc2c1C [Compound 1-430, 7-(3-cyclohexyl-7,8-dihydro-1,6-naphthyridin-6(5H)-yl)-8,9-dimethyl-4H-pyrimido[1,2-b] pyridazin-4-one] |  |
| 95 | 177 | COCc1cc(=O)n2nc(N3CCc4ncc(-c5ccc(C)nc5)cc4C3)c(C)c(C)c2n1 [Compound 1-110, 2-(methoxymethyl)-8,9-dimethyl-7-(3-(6-methylpyridin-3-yl)-7,8-dihydro-1,6-naphthyridin-6(5H)-yl)-4H-pyrimido[1,2-b]pyridazin-4-one] |  |
| 89 | 33 | Cc1cc2nccc(=O)n2nc1N1CCc2ncc(N3CCCc4cc(F)ccc43)cc2C1 [Compound 2-103, 7-(3-(6-fluoro-3,4-dihydroquinolin-1(2H)-yl)-7,8-dihydro-1,6-naphthyridin-6(5H)-yl)-8-methyl-4H-pyrimido[1,2-b]pyridazin-4-one] |  |
| 77 |  | Cc1c(N2CCc3ncc(P(C)(C)=O)cc3C2)nn2c(=O)ccnc2c1C [Compound 3-5, 7-(3-(Dimethylphosphoryl)-7,8-dihydro-1,6-naphthyridin-6(5H)-yl)-8,9-dimethyl-4H-pyrimido[1,2-b]pyridazin-4-one] |  |
| 82 | 128 | Cc1c(N2CCc3ncc(-c4ccc(F)nc4)cc3C2)nn2c(=O)ccnc2c1C [Compound 1-87, 7-(3-(6-Fluoropyridin-3-yl)-7,8-dihydro-1,6-naphthyridin-6(5H)-yl)-8,9-dimethyl-4H-pyrimido[1,2-b]pyridazin-4-one] |  |
| 95 | 1 | Cc1cc2nc(C)c(Cl)c(=O)n2nc1N1CCc2ncc(Nc3ccncc3F)cc2C1 [Compound 2-161, 3-chloro-7-(3-((3-fluoropyridin-4-yl)amino)-7,8-dihydro-1,6-naphthyridin-6(5H)-yl)-2,8-dimethyl-4H-pyrimido[1,2-b]pyridazin-4-one] |  |
| 59 | 3310 | Cc1cc2nccc(=O)n2nc1N1CCc2ncc(-c3cccnn3)cc2C1 [Compound 1-352, 8-methyl-7-(3-(pyridazin-3-yl)-7,8-dihydro-1,6-naphthyridin-6(5H)-yl)-4H-pyrimido[1,2-b]pyridazin-4-one] |  |
| 53 | 1250 | Cc1cc2nccc(=O)n2nc1N1CCc2ncc(-c3cnc(F)c(F)c3)cc2C1 [Compound 1-331, 7-(3-(5,6-difluoropyridin-3-yl)-7,8-dihydro-1,6-naphthyridin-6(5H)-yl)-8-methyl-4H-pyrimido [1,2-b]pyridazin-4-one] |  |
| 64 | 618 | Cc1c(N2CCc3ncc(-c4cncc(C#N)c4)cc3C2)nn2c(=O)ccnc2c1C [Compound 1-223, 5-(6-(8,9-dimethyl-4-oxo-4H-pyrimido[1,2-b]pyridazin-7-yl)-5,6,7,8-tetrahydro-1,6-naphthyridin-3-yl)nicotinonitrile] |  |
| 98 | 14 | Cc1cc2nccc(=O)n2nc1N1CCc2ncc(N3CCOc4cc(F)ccc43)cc2C1 [Compound 2-56, 7-(3-(7-fluoro-2,3-dihydro-4H-benzo[b][1,4]oxazin-4-yl)-7,8-dihydro-1,6-naphthyridin-6(5H)-yl)-8-methyl-4H-pyrimido[1,2-b]pyridazin-4-one] |  |
| 103 | 102 | Cc1cc2nccc(=O)n2nc1N1CCc2ncc(Nc3cccnc3F)cc2C1 [Compound 2-78, 7-(3-((2-fluoropyridin-3-yl)amino)-7,8-dihydro-1,6-naphthyridin-6(5H)-yl)-8-methyl-4H-pyrimido[1,2-b]pyridazin-4-one] |  |
| 66 | 232 | Cc1c(N2CCc3ncc(-c4ccc5nccn5c4)cc3C2)nn2c(=O)ccnc2c1C [Compound 1-225, 7-(3-(imidazo[1,2-a]pyridin-6-yl)-7,8-dihydro-1,6-naphthyridin-6(5H)-yl)-8,9-dimethyl-4H-pyrimido[1,2-b]pyridazin-4-one] |  |
| 62 | 398 | COc1cc(F)ccc1Nc1cnc2c(c1)CN(c1nn3c(=O)ccnc3cc1C)CC2 [Compound 2-74, 7-(3-((4-fluoro-2-methoxyphenyl)amino)-7,8-dihydro-1,6-naphthyridin-6(5H)-yl)-8-methyl-4H-pyrimido[1,2-b]pyridazin-4-one] |  |

| SMILES | Emax at 30 µM [%] | EC50 [nM] | Emax (CHO-K1) [%] |
| --- | --- | --- | --- |
| Cc1ccc2c(n1)CCN(c1nn3c(=O)ccnc3cc1C)C2 [Compound 1-448, 8-methyl-7-(2-methyl-7,8-dihydro-1,6-naphthyridin-6(5H)-yl)-4H-pyrimido[1,2-b] pyridazin-4-one] |  | 2300 | 66 |
